From ChEMBL document CHEMBL1129083, “The synthesis of 5-azido-UTP and UDP-pyridoxal and their effect on the carbamoyl-phosphate synthetase (CPS II) in the mammalian multienzyme polypeptide CAD” (Bioorg Med Chem Lett, 1996)

Columns and labels:
[1] = target: Multifunctional protein CAD (Homo sapiens) (UniProt P27708); test: Compound was evaluated for its effect on the activity of mammalian Carbamoyl-phosphate synthetase in the multienzyme polypeptide CAD at a concentration of 0.4mM
[2] = target: Multifunctional protein CAD (Homo sapiens) (UniProt P27708); test: Compound was evaluated for its effect on the activity of mammalian Carbamoyl-phosphate synthetase in the multienzyme polypeptide CAD at a concentration of 1.2mM
[3] = target: Multifunctional protein CAD (Homo sapiens) (UniProt P27708); test: Compound was evaluated for its effect on the activity of mammalian Carbamoyl-phosphate synthetase in the multienzyme polypeptide CAD at a concentration of 1.6mM
[4] = target: Multifunctional protein CAD (Homo sapiens) (UniProt P27708); test: Compound was evaluated for its effect on the activity of mammalian Carbamoyl-phosphate synthetase in the multienzyme polypeptide CAD at a concentration of 4mM
[5] = target: Multifunctional protein CAD (Homo sapiens) (UniProt P27708); test: Compound was evaluated for its effect on the activity of mammalian Carbamoyl-phosphate synthetase in the multienzyme polypeptide CAD at a concentration of 1.2 mM

Multifunctional protein CAD (Homo sapiens), sequence (P27708 whole entry): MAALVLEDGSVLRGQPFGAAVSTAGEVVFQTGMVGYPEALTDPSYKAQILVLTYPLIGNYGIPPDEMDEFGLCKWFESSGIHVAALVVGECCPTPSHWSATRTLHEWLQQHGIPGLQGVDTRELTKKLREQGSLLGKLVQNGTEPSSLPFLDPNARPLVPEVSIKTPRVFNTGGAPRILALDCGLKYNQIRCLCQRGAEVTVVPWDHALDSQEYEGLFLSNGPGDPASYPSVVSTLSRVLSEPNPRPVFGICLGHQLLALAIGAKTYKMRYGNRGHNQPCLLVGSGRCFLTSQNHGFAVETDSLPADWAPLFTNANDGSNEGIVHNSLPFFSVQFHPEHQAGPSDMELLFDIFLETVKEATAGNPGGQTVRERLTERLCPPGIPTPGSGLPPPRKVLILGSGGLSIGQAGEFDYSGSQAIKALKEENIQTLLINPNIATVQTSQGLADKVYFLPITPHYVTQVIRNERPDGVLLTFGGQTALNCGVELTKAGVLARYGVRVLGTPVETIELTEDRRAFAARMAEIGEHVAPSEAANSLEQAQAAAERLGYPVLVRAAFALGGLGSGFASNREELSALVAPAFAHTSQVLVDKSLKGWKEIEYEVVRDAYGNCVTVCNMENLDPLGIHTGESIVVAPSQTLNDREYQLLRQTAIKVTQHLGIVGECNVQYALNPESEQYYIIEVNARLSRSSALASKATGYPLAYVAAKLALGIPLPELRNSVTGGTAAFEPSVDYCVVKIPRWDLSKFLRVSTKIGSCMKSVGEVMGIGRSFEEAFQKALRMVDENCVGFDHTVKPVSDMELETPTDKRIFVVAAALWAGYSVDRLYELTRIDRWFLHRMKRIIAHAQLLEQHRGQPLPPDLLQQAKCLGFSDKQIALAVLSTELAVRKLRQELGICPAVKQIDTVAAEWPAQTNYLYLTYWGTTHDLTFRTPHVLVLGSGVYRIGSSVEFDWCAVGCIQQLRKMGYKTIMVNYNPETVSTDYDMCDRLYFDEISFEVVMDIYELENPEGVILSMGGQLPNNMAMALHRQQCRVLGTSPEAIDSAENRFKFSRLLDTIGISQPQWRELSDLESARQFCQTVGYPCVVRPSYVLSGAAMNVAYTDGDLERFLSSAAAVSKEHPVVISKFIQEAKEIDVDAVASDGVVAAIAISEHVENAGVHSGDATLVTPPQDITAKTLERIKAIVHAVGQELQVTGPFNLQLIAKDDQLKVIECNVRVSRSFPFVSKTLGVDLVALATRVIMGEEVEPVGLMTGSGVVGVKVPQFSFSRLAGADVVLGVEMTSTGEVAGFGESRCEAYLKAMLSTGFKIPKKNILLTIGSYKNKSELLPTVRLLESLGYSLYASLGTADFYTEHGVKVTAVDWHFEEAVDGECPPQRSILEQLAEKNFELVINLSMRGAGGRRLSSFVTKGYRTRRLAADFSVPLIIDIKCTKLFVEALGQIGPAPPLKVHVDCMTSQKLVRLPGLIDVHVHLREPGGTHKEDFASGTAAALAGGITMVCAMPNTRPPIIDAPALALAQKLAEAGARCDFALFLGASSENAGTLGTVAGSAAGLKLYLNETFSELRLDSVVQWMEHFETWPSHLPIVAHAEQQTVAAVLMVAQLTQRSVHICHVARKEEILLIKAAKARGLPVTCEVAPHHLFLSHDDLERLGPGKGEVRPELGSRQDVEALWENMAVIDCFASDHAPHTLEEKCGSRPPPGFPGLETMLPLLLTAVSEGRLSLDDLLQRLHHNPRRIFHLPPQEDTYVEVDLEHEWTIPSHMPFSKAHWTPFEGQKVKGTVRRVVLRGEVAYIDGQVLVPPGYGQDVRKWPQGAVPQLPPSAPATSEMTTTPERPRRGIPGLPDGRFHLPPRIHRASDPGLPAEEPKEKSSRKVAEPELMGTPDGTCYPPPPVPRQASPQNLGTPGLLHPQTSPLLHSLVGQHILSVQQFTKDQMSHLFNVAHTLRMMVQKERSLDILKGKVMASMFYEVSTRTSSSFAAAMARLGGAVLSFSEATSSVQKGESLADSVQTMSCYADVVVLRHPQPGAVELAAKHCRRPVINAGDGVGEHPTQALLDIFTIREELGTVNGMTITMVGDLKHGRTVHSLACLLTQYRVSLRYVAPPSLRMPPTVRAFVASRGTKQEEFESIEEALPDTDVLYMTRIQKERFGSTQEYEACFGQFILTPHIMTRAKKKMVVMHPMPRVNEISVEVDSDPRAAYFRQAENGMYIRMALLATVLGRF

Structure (SMILES) | Activity [1] | Activity [2] | other results
Cc1ncc(COP(=O)(O)O)c(C=O)c1O | 170% | – | –
O=c1ccn([C@@H]2O[C@H](COP(=O)(O)OP(=O)(O)O)[C@@H](O)[C@H]2O)c(=O)[nH]1 | – | 54% | –
O=c1ccn([C@@H]2O[C@H](CO)C(O)C2O)c(=O)[nH]1 (single isomer, unassigned) | – | – | Activity [3]: 100%
O=c1ccn([C@@H]2O[C@H](COP(=O)(O)OP(=O)(O)OP(=O)(O)O)[C@@H](O)[C@H]2O)c(=O)[nH]1 | – | 18% | –
O=P(O)(O)OC[C@H]1OC(OP(=O)(O)OP(=O)(O)O)[C@H](O)[C@@H]1O (stereo not given in full) | 320% | – | –
Nc1ncnc2c1ncn2[C@@H]1O[C@H](COP(=O)(O)OP(=O)(O)OP(=O)(O)O)[C@@H](O)[C@H]1O | – | – | Activity [4]: 100%
O=P(O)(O)OC[C@H]1O[C@H](O)C(O)C1O (single isomer, unassigned) | – | – | Activity [3]: 100%
[N-]=[N+]=Nc1cn([C@@H]2O[C@H](COP(=O)(O)OP(=O)(O)OP(=O)(O)O)[C@@H](O)[C@H]2O)c(=O)[nH]c1=O | – | – | Activity [5]: 48%
Cc1ncc(COP(=O)(O)OP(=O)(O)OC[C@H]2OC(n3ccc(=O)[nH]c3=O)[C@H](O)[C@@H]2O)c(C=O)c1O (stereo not given in full) | 120% | – | –
Cc1ncc(CO)c(C=O)c1O | – | 73% | –
